Experiment [1] deals with S. pneumoniae ATCC 51916. The experiment in a line: MIC, S. pneumoniae. In kind it is cell-based.
Experiment [2] deals with S. aureus ATCC 13709. The experiment is described as follows: MIC, antibacterial potency, S. aureus. It is filed as cell-based.
Where [3] appears, read: S. pneumoniae (Spn52), in µg/mL.

Each structure is given as a SMILES string. Converted amounts (≈) assume the structure as drawn.

On to `CCc1[nH]c2nc(Sc3cnc4nccnc4c3)nc(N3CC(CNS(C)(=O)=O)C3)c2c1Br` [700,468], for which the MIC Spn52 in experiment [1] (S. pneumoniae) came out at 1 mg/L (≈ 1.82 µM). In experiment [2] (S. aureus), the MIC, SA was not above 0.5 mg/L.

On to `CCc1nc2c(N3CC(N)C3)nc(Sc3cnc4c(N)nc(C)nc4c3)nc2[nH]1` [700,538], for which the MIC Spn52 in experiment [1] (S. pneumoniae) was more than 16 mg/L. This compound also came in with an MIC, SA in experiment [2] (S. aureus) of more than 16 mg/L.

With `CCc1[nH]c2nc(Sc3cnc4c(c3)ncn4CC)nc(N3CC(O)C3)c2c1Br` [700,405], in experiment [1] (S. pneumoniae), the MIC Spn52 was determined as 2 mg/L (≈ 4.22 µM). Moreover, in experiment [2] (S. aureus), the MIC, SA is not above 0.5 mg/L.

`CCc1[nH]c2nc(Sc3ccc4cc(C#N)cnc4c3)nc(N3CC[C@@H](N)C3)c2c1Cl` [700,715]: the MIC Spn52 in experiment [1] (S. pneumoniae) is 1 mg/L (≈ 2.22 µM). Further, the MIC, SA in experiment [2] (S. aureus) was not above 0.5 mg/L.

In turn, `CCc1[nH]c2nc(Sc3cnc4nccnc4c3)nc(N3CC(C4(N)CC4)C3)c2c1Cl` [700,707] yielded an MIC Spn52 in experiment [1] (S. pneumoniae) of 4 mg/L (≈ 8.83 µM). This compound also showed an MIC, SA in experiment [2] (S. aureus) of 2 mg/L (≈ 4.42 µM).

In experiment [1] (S. pneumoniae), `CCc1[nH]c2nc(Cc3cccnc3)nc(N3CC(N)C3)c2c1Cl` [700,495] returned an MIC Spn52 of more than 64 mg/L. The MIC, SA in experiment [2] (S. aureus) was 64 mg/L (≈ 187 µM).

`CCc1[nH]c2nc(Sc3ccc4c(N)ncnc4c3)nc(N3CC4CNC4C3)c2c1Cl` (stereo not drawn) [700,689]: the MIC Spn52 in experiment [1] (S. pneumoniae) turned out to be 8 mg/L (≈ 17.7 µM). The MIC, SA in experiment [2] (S. aureus) was 2 mg/L (≈ 4.42 µM).

The compound `CCc1[nH]c2nc(Nc3cnc4c(c3)nnn4C)nc(OC)c2c1Br.O=C(O)C(F)(F)F` [700,599] had an MIC Spn52 in experiment [1] (S. pneumoniae) of 2 mg/L. The compound also yielded an MIC, SA in experiment [2] (S. aureus) not above 0.5 mg/L.

For the compound `CCOc1nc(Nc2cnc3c(c2)c(=O)n(C)c(=O)n3C)nc2[nH]c(CC)c(Br)c12.O=C(O)C(F)(F)F` [700,452], in experiment [1] (S. pneumoniae), the MIC Spn52 is more than 64 mg/L. This compound returned an MIC, SA in experiment [2] (S. aureus) of more than 64 mg/L.

For the compound `CCc1[nH]c2nc(Sc3ccc4c(N)n[nH]c4c3)nc(N3CC(N)C3)c2c1Cl` [700,850], the “MIC Spn52” value in experiment [1] (setting [3]) is on record as more than 64. Also, the “MIC, SA” value in experiment [2] (S. aureus (SA), in µg/mL) turned out to be 64.

In experiment [1] (S. pneumoniae), `CCc1[nH]c2nc(Sc3cnc4c(N)nc(N)nc4c3)nc(N3CC(O)C3)c2c1Cl.O=C(O)C(F)(F)F.O=C(O)C(F)(F)F` [700,448] registered an MIC Spn52 of 2 mg/L. Besides, the MIC, SA in experiment [2] (S. aureus) came out at 1 mg/L.

`CCOc1nc(Sc2nc(C(=O)OC)cs2)nc2[nH]c(CC)c(Br)c12` [700,281]: the MIC Spn52 in experiment [1] (S. pneumoniae) amounted to 64 mg/L (≈ 144 µM). For the same compound, in experiment [2] (S. aureus), the MIC, SA was 32 mg/L (≈ 72.2 µM).

In the case of `CCc1[nH]c2nc(Oc3cccc(C#N)c3)nc(/C=C\c3cccc(OC)c3)c2c1Cl` [700,892], in experiment [1] (setting [3]), the “MIC Spn52” value is more than 64. Besides, the “MIC, SA” value in experiment [2] (S. aureus (SA), in µg/mL) is listed as more than 64.

For `CCc1[nH]c2nc(Sc3cnc4nccnc4c3)nc(N3CC4C(C3)C4(CN)NCc3ccccc3)c2c1Cl` (stereo not drawn) [700,886], the “MIC Spn52” value in experiment [1] (setting [3]) turned out to be 8. For the same compound, in experiment [2] (S. aureus (SA), in µg/mL), the “MIC, SA” value is listed as more than 8.

In the case of `CCc1[nH]c2nc(Sc3cccnc3)nc(Cl)c2c1Br.O=C(O)C(F)(F)F` [700,267], the MIC Spn52 in experiment [1] (S. pneumoniae) was found to be 16 mg/L. Also, in experiment [2] (S. aureus), the MIC, SA stood at 2 mg/L.

With `CCc1[nH]c2nc(Oc3cccnc3)nc(N3CCN(c4cnccn4)CC3)c2c1Cl.O=C(O)C(F)(F)F` [700,465], in experiment [1] (S. pneumoniae), the MIC Spn52 is 32 mg/L. The compound also gave an MIC, SA in experiment [2] (S. aureus) of 8 mg/L.

The compound `CCc1[nH]c2nc(Sc3cccnc3)nc(NCCCn3ccnc3)c2c1Cl.O=C(O)C(F)(F)F` [700,274] yielded an MIC Spn52 in experiment [1] (S. pneumoniae) of 16 mg/L. The same compound had an MIC, SA in experiment [2] (S. aureus) of 4 mg/L.

As for `CCc1[nH]c2nc(Sc3cnc4c(N)nc(CN5CCNCC5)nc4c3)nc(N3CC[C@@H](N)C3)c2c1Cl` [700,826], the “MIC Spn52” value in experiment [1] (setting [3]) is given as 32. In addition, the “MIC, SA” value in experiment [2] (S. aureus (SA), in µg/mL) amounted to 8.

Regarding `CCc1[nH]c2nc(Sc3cnc4nccnc4c3)nc(N3CC(CNC(=O)C4CCC(O)CC4)C3)c2c1Cl` (stereo not drawn) [700,521], the MIC Spn52 in experiment [1] (S. pneumoniae) stood at 2 mg/L (≈ 3.62 µM). Moreover, the MIC, SA in experiment [2] (S. aureus) came out at 1 mg/L (≈ 1.81 µM).

Compound `CCc1[nH]c2nc(Sc3cnc4nccnc4c3)nc(N3CC(NC(=O)COC)C3)c2c1Cl` [700,438] yielded an MIC Spn52 in experiment [1] (S. pneumoniae) of 1 mg/L (≈ 2.06 µM). The same compound registered an MIC, SA in experiment [2] (S. aureus) not above 0.5 mg/L.

The compound `CCOc1nc(Nc2cncnc2)nc2[nH]c(CC)c(Br)c12.O=C(O)C(F)(F)F` [700,701] gave an MIC Spn52 in experiment [1] (S. pneumoniae) of 8 mg/L. In experiment [2] (S. aureus), the MIC, SA was found to be 1 mg/L.

`CCc1[nH]c2nc(Sc3cnc4nccnc4c3)nc(Oc3ccc(OC)c(C#N)c3)c2c1Cl` [700,834]: the “MIC Spn52” value in experiment [1] (setting [3]) was 8. For the same compound, the “MIC, SA” value in experiment [2] (S. aureus (SA), in µg/mL) was determined as 1.

For `CCc1[nH]c2nc(Sc3ccc4c(N5CCNCC5)ccnc4c3)nc(N3CC(O)C3)c2c1Br` [700,403], the MIC Spn52 in experiment [1] (S. pneumoniae) is 8 mg/L (≈ 14.8 µM). The MIC, SA in experiment [2] (S. aureus) was 4 mg/L (≈ 7.4 µM).

`CCc1[nH]c2nc(Sc3cnc4nccnc4c3)nc(OC3CNC3)c2c1Cl` [700,486] came in with an MIC Spn52 in experiment [1] (S. pneumoniae) of 8 mg/L (≈ 19.3 µM). Further, the MIC, SA in experiment [2] (S. aureus) was determined as 16 mg/L (≈ 38.7 µM).

As for `CCc1[nH]c2nc(Sc3nc(C(=O)O)cs3)nc(N3CC(Cc4cncnc4)C3)c2c1Cl.O=C(O)C(F)(F)F` [700,318], the MIC Spn52 in experiment [1] (S. pneumoniae) was more than 64 mg/L. Moreover, in experiment [2] (S. aureus), the MIC, SA is more than 64 mg/L.

As to `CCc1[nH]c2nc(Sc3cnc4nccnc4c3)nc(N3CC4C(C3)C4NC(=N)N)c2c1Cl` (stereo not drawn) [700,658], the MIC Spn52 in experiment [1] (S. pneumoniae) was determined as 8 mg/L (≈ 16.6 µM). The compound also displayed an MIC, SA in experiment [2] (S. aureus) not above 0.5 mg/L.

The compound `CCc1[nH]c2nc(Sc3cnc4c(C(C)C)nc(N)nc4c3)nc(OCCn3ccnc3)c2c1Cl.O=C(O)C(F)(F)F` [700,507] returned an MIC Spn52 in experiment [1] (S. pneumoniae) of more than 64 mg/L. The MIC, SA in experiment [2] (S. aureus) was more than 64 mg/L.

Turning to `CCc1[nH]c2nc(Sc3cnc4c(N)nc(C)nc4c3)nc(N3CC(O)C3)c2c1Cl.O=C(O)C(F)(F)F` [700,514], the MIC Spn52 in experiment [1] (S. pneumoniae) was not above 0.5 mg/L. Also, the MIC, SA in experiment [2] (S. aureus) was not above 0.5 mg/L.

In turn, `CCc1[nH]c2nc(Oc3cnc4ccoc4c3)nc(Oc3cncc(OC)c3)c2c1Cl.O=C(O)C(F)(F)F` [700,649] had an MIC Spn52 in experiment [1] (S. pneumoniae) of 2 mg/L. Besides, the MIC, SA in experiment [2] (S. aureus) was not above 0.5 mg/L.

Regarding `CCc1[nH]c2nc(Oc3cncnc3)nc(Oc3cncc(C#N)c3)c2c1Cl` [700,898], in experiment [1] (setting [3]), the “MIC Spn52” value was determined as 2. In addition, the “MIC, SA” value in experiment [2] (S. aureus (SA), in µg/mL) is “<=0.5”.

In the case of `CCOc1nc(Sc2cc(C(=O)O)ccn2)nc2[nH]c(CC)c(Cl)c12` [700,321], the MIC Spn52 in experiment [1] (S. pneumoniae) turned out to be 64 mg/L (≈ 169 µM). Also, in experiment [2] (S. aureus), the MIC, SA was 64 mg/L (≈ 169 µM).

Turning to `CCc1[nH]c2nc(Sc3nc4ncccc4c(=O)[nH]3)nc(N3CC(O)C3)c2c1Br` [700,358], the MIC Spn52 in experiment [1] (S. pneumoniae) is more than 64 mg/L. Also, the MIC, SA in experiment [2] (S. aureus) is more than 64 mg/L.

With `CCc1[nH]c2nc(Sc3cnc4nccnc4c3)nc(N3C[C@H](N)C[C@@H]3CO)c2c1Cl` [700,868], the “MIC Spn52” value in experiment [1] (setting [3]) is given as more than 64. The “MIC, SA” value in experiment [2] (S. aureus (SA), in µg/mL) is given as more than 64.

For `CCc1[nH]c2nc(Sc3ccc4c(N)nc(CN5CCNCC5)nc4c3)nc(N3CC[C@@H](N)C3)c2c1Cl` [700,847], the “MIC Spn52” value in experiment [1] (setting [3]) is more than 64. In experiment [2] (S. aureus (SA), in µg/mL), the “MIC, SA” value is more than 64.

Take `CCc1[nH]c2nc(Sc3cc(=O)n(CC(C)=O)c(=O)[nH]3)nc(N3CC(O)C3)c2c1Br` [700,442]: in experiment [1] (S. pneumoniae), the MIC Spn52 came to 2 mg/L (≈ 4.04 µM). In experiment [2] (S. aureus), this compound showed an MIC, SA not above 0.5 mg/L.

With `CCc1[nH]c2nc(Sc3cnc4cccnc4c3)nc(N3C[C@@H](N)[C@@H](C(=O)OC)C3)c2c1Cl` [700,873], the “MIC Spn52” value in experiment [1] (setting [3]) was determined as 32. For the same compound, in experiment [2] (S. aureus (SA), in µg/mL), the “MIC, SA” value worked out at 2.

In the case of `CCc1[nH]c2nc(Sc3cncc(O)c3)nc(N3CC[C@@H](N)C3)c2c1Cl` [700,821], the “MIC Spn52” value in experiment [1] (setting [3]) is listed as more than 64. In addition, the “MIC, SA” value in experiment [2] (S. aureus (SA), in µg/mL) is more than 64.

The compound `CCc1[nH]c2nc(Sc3cnc4nccnc4c3)nc(N3CC4[C@H](C3)[C@@]4(N)C(N)=O)c2c1Cl.O=C(O)C(F)(F)F.O=C(O)C(F)(F)F` (stereo partly drawn) [700,781] gave an MIC Spn52 in experiment [1] (S. pneumoniae) of 1 mg/L. Moreover, the MIC, SA in experiment [2] (S. aureus) is not above 0.5 mg/L.

Consider `C#CCOC(=O)NC1CN(c2nc(Sc3ccc4ccc(C(=O)O)nc4c3)nc3[nH]c(CC)c(Cl)c23)C1` [700,809], for which, in experiment [1] (setting [3]), the “MIC Spn52” value is listed as 4. In experiment [2] (S. aureus (SA), in µg/mL), the “MIC, SA” value is “<=0.5”.

Values taken from patent publication US10047105B2, “Gyrase inhibitors” (Merck Sharp & Dohme Corp., priority 2009, dated 2018).
